Data published in patent publication US12180226B2, “Spirotricycle RIPK1 inhibitors and methods of uses thereof” (Merck Sharp & Dohme LLC, priority 2021, dated 2024).
Counter-ions that a name gives are not always drawn.

molecular target: RIPK1 (recombinant GST-RIPK1 kinase domain, residues 1-327) (Homo sapiens (Human), UniProt Q13546); assay: RIPK1-ADP-Glo Enzymatic Assay; format: biochemical; conditions: ADP-Glo; 25 nM GST-RIPK1, 300 μM ATP; assay lower limit ~25 nM; read-out: RIPK1 V0 Ec50
Method in brief: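 Enzyme from baculovirus-infected Sf21 cells, 25 nM final, was pre-incubated 30 min at ambient temperature with compound (ten-point, 1:3 dilution from 100000 nM, 1% DMSO), then reacted 150 min with 300 μM ATP and 3 μM dephosphorylated MBP. ADP was read by luminescence; EC50 from four-parameter fit.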

Sequence of RIPK1 (recombinant GST-RIPK1 kinase domain, residues 1-327) (Q13546 1-327): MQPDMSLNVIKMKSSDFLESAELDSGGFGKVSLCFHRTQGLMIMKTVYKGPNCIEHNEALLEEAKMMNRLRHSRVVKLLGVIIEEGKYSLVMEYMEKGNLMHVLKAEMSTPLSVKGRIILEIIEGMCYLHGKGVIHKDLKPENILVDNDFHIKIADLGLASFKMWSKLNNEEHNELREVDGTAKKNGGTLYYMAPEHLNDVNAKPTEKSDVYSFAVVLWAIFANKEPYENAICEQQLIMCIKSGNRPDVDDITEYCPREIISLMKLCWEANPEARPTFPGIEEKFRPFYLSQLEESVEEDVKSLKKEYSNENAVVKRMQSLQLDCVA

Structure (SMILES) | EC50 [nM]
COC(=O)c1cnc(N2CCC3(CC2)O[C@@H]2CC[C@@H](c4ccccc4)N2C3=O)cc1OC [Example 4.210, methyl 4-methoxy-6-[(5′S,7a′R)-3′-oxo-5′-phenyltetrahydro-1H,3′H-spiro[piperidine-4,2′-pyrrolo[2,1-b] [1,3]oxazol]-1-yl]pyridine-3-carboxylate] | 76
O=C(c1cc(O)ccc1F)N1CCC2(CC1)O[C@@H]1CC[C@@H](c3cc(F)cc(F)c3)N1C2=O [Example 5.57, (5′S,7a′R)-5′-(3,5-difluoro-phenyl)-1-(2-fluoro-5-hydroxybenzoyl)tetra-hydro-3′H-spiro[piperidine-4,2′-pyrrolo[2,1-b]oxazol]-3'-one] | < 25
N#Cc1cc(C(=O)N2CCC3(CC2)O[C@@H]2CC[C@@H](c4cccc(F)c4)N2C3=O)ccc1F [Example 6.113, 2-fluoro-5-[(5′S,7a′R)-5′-(3-fluorophenyl)-3′-oxotetrahydro-1H,3′H-spiro[piperidine-4,2′-pyrrolo[2,1-b][1,3]-oxazole]-1-carbonyl] benzonitrile] | < 25
Cc1cc(N2CCC3(CC2)O[C@@H]2CC[C@@H](c4ccccc4)N2C3=O)cs1 [Example 11.10, (5′S,7a′R)-1-(5-methylthiophen-3-yl)-5′-phenyltetrahydro-3′H-spiro[piperidine-4,2′-pyrrolo[2,1-b][1,3]oxazol]-3′-one] | 253
Cc1nc(N2CCC3(CC2)O[C@@H]2CC[C@@H](c4ccccc4)N2C3=O)ncc1-c1ncn(C)n1 [Example 21.4, (5′S,7a′R)-1-[4-methyl-5-(1-methyl-1H-1,2,4-triazol-3-yl)pyrimidin-2-yl]-5′-phenyltetrahydro-3′H-spiro[piperidine-4,2′-pyrrolo[2,1-b][1,3]oxazol]-3′-one] | 117
CC(C)(C)OC(=O)/C=C/c1ccc(N2CCC3(CC2)O[C@@H]2CC[C@@H](c4ccccc4)N2C3=O)nc1 [Example 4.163, tert-butyl (2E)-3-{6-[(5′S,7a′R)-3′-oxo-5′-phenyltetrahydro-1H,3′H-spiro[piperidine-4,2′-pyrrolo[2,1-b] [1,3]oxazol]-1-yl]pyridin-3-yl}prop-2-enoate] | 30.3
O=C1N2[C@@H](CC[C@H]2C2CCCCC2)OC12CCN(c1ccnc3c(F)cnn13)CC2 [Example 4.87, (5′S,7a′R)-5′-cyclohexyl-1-(3-fluoropyrazolo [1,5-a]pyrimidin-7-yl)tetrahydro-3′H-spiro[piperidine-4,2′-pyrrolo[2,1-b]oxazol]-3′-one, TFA salt] | < 25
O=C1N2[C@@H](CC[C@H]2c2ccccc2)OC12CCN(c1ccc(=O)n(CC3CC3)n1)CC2 [Example 11.8, (5′S,7a′R)-1-[1-(cyclopropylmethyl)-6-oxo-1,6-dihydropyridazin-3-yl]-5′-phenyltetrahydro-3′H-spiro[piperidine-4,2′-pyrrolo[2,1-b][1,3]oxazol]-3′-one] | 215
C#Cc1ccccc1C(=O)N1CCC2(CC1)O[C@@H]1CC[C@@H](c3cc(F)cc(F)c3)N1C2=O [Example 5.23, (5′S,7a′R)-5′-(3,5-difluoro-phenyl)-1-(2-ethynyl-benzoyl)tetrahydro-3′H-spiro[piperidine-4,2′-pyrrolo[2,1-b]oxazol]-3′-one] | 143
Cc1nc(N2CCC3(CC2)C[C@@H]2OC[C@@H](c4ccccc4)N2C3=O)ccc1C#N [Example 4.78, 2-methyl-6-[(3′R,7a′S)-5′-oxo-3′-phenyltetrahydro-1H,5′H-spiro[piperidine-4,6′-pyrrolo[2,1-b] [1,3]oxazol]-1-yl]pyridine-3-carbonitrile] | 58.7
O=C(c1cc(F)ccc1F)N1CCC2(CC1)O[C@@H]1CC[C@@H](c3cccc(F)c3)N1C2=O [Example 1.6, (5′S,7a′R)-1-(2,5-difluorobenzene-1-carbonyl)-5′-(3-fluorophenyl)tetrahydro-3′H-spiro[piperidine-4,2′-pyrrolo[2,1-b] [1,3]oxazol]-3′-one] | < 25
N#Cc1ccc(C(=O)N2CCC3(CC2)O[C@@H]2CC[C@@H](c4cc(F)cc(F)c4)N2C3=O)cc1F [Example 5.19, 4-((5′S,7a′R)-5′-(3,5-difluorophenyl)-3′-oxo-tetrahydro-3′H-spiro [piperidine-4,2′-pyrrolo-[2,1-b]oxazole]-1-carbon-yl)-2-fluorobenzonitrile] | 333
N#CC1(NC(=O)c2nc(N3CCC4(CC3)O[C@@H]3CC[C@@H](c5cc(F)cc(F)c5)N3C4=O)ncc2F)CC1 [Example 7.12, N-(1-cyanocyclopropyl)-2-[(5′S,7a′R)-5′-(3,5-difluorophenyl)-3'-oxotetrahydro-1H,3′H-spiro[piperidine-4,2′-pyrrolo[2,1-b][1,3]oxazol]-1-yl]-5-fluoropyrimidine-4-carboxamide] | 165
O=C1N2[C@@H](CC[C@H]2c2cc(F)cc(F)c2)OC12CCN(c1ccc(Cl)c3ncnn13)CC2 [Example 15.4, (5′S,7a′R)-1-(8-chloro-[1,2,4]triazolo[1,5-a]pyridin-5-yl)-5′-(3,5-difluorophenyl)tetrahydro-3′H-spiro[piperidine-4,2′-pyrrolo[2,1-b]oxazol]-3′-one, TFA salt] | < 25
C#Cc1ccnc(C(=O)N2CCC3(CC2)O[C@@H]2CC[C@@H](c4cc(F)cc(F)c4)N2C3=O)c1 [Example 5.43, (5′S,7a′R)-5′-(3,5-difluoro-phenyl)-1-(4-ethynylpico-linoyl)tetrahydro-3′H-spiro[piperidine-4,2′-pyrrolo[2,1-b]oxazol]-3′-one] | < 25
N#Cc1ccc(N2CCC3(CC2)S[C@@H]2CC[C@@H](c4ccccc4)N2C3=O)n2nccc12 [Example 4.145, 7-[(5′S,7a′R)-3′-oxo-5′-phenyltetrahydro-1H,3′H-spiro[piperidine-4,2′-pyrrolo[2,1-b] [1,3]thiazol]-1-yl]pyrazolo[1,5-a] pyridine-4-carbonitrile] | < 25
Cc1nccn1-c1cc(N2CCC3(CC2)O[C@@H]2CC[C@@H](c4ccccc4)N2C3=O)ncn1 [Example 4.175, (5′S,7a′R)-1-[6-(2-methyl-1H-imidazol-1-yl)pyrimidin-4-yl]-5′-phenyltetrahydro-3′H-spiro[piperidine-4,2′-pyrrolo[2,1-b] [1,3]oxazol]-3′-one] | < 25
O=C(c1nc2cnccc2s1)N1CCC2(CC1)O[C@@H]1CC[C@@H](c3cc(F)cc(F)c3)N1C2=O [Example 6.44, (5′S,7a′R)-5′-(3,5-difluorophenyl)-1-([1,3]thiazolo[4,5-c]pyridine-2-carbonyl) tetrahydro-3′H-spiro [piperidine-4,2′-pyrrolo[2,1-b][1,3]oxazol]-3′-one] | 67.1
COC(=O)c1c(C)cc(N2CCC3(CC2)O[C@@H]2CC[C@@H](c4ccccc4)N2C3=O)nc1C#N [Example 4.192, methyl 2-cyano-4-methyl-6-[(5′S,7a′R)-3′-oxo-5′-phenyltetrahydro-1H,3′H-spiro[piperidine-4,2′-pyrrolo[2,1-b] [1,3]oxazol]-1-yl] pyridine-3-carboxylate] | 54.4
COc1ccc(F)c(C(=O)N2CCC3(CC2)O[C@@H]2CC[C@@H](c4cccc(F)c4)N2C3=O)c1 [Example 6.131, (5′S,7a′R)-1-(2-fluoro-5-methoxybenzene-1-carbonyl)-5′-(3-fluoro-phenyl)tetrahydro-3′H-spiro[piperidine-4,2′-pyrrolo[2,1-b] [1,3]oxazol]-3′-one] | < 25
